The text below walks through data of patent US7449197B2, “Liposome formulation of 6,9-bis[(2-aminoethyl)-amino]benzo[g]isoquinoline-5, 10-dione dimaleate” (Cell Therapeutics Europe S.r.l., priority 1999, dated 2008).

Marks after values point to notes of the source that are not given here.

Data set [1] has as its system P388 murine leukemia. In words: Antitumor activity against P388 murine leukemia in mice (survival time, T/C %). Type of data set: in vivo. The protocol: Animals: mice were provided by Charles River Breeding Laboratories (Calco, Como, Italy); they were male mice of 6-8 weeks under standard housing conditions. Formulations: BBR 2778 dissolved and diluted in sterile water just before administration of 10 mg/kg to mice was used as reference. The liposome formulation of Example 4 was used. Tumor model: P388 murine leukemia, provided by NCI Frederick Cancer Facility (USA) is maintained through a series of intraperitoneal transplants in DBA2 mice. Mice were transplanted with 10^6 cells/mouse of P388 leukemia, the liposome compound and the reference standard were administered i.v. at days 1, 4, 7 after tumor transplant. The antitumor activity was determined as percent increase in the survival time of mice, expressed by the T/C % ratio of the mean survival time (TMS) of the treated group (T) to the mean survival time of the control group (C): […]

In data set [2] the test system is mice. The note with it: male, mouse, in vivo, iv, 40 mg/kg.
Method: The liposome formulations according to the invention were tested in vivo for the antitumor activity and toxicity. […] In particular, the inhibitory activity on sudden deaths was evaluated compared with the control group, which was administered with a formulation of the free drug.
Data set [3] concerns CD1 mice. Type of data set: in vivo. The note with it: 40 or 60 mg/kg i.v. bolus.

Take `NCCNc1ccc(NCCN)c2c1C(=O)c1ccncc1C2=O.O=C(O)/C=C\C(=O)O` [BBR 2778 solution, 6,9-bis-[(2-aminoethyl)amino]benzo[g]isoquinoline-5,10-dione dimaleate]: the T/C % was 199** % in data set [1] (18 mg/kg/day i.v. at days 1, 4, 7 after tumor transplant); 226** % in data set [1] (27 mg/kg/day i.v. at days 1, 4, 7 after tumor transplant); 159** % in data set [1] (40 mg/kg/day i.v. at days 1, 4, 7 after tumor transplant, dimaleate); 159% in data set [1] (40 mg/kg/day i.v. at days 1, 4, 7 after tumor transplant, listed as BBR 2778 in solution, dimaleate); 36** % in data set [1] (60 mg/kg/day i.v. at days 1, 4, 7 after tumor transplant). The “toxicity (percent toxic deaths)” value in data set [2] came to 60.4%. Besides, the “death during or immediately after treatment” value in data set [3] is listed as “death of some animals is observed”.
